Measured values: article PMC2409936, “Phase I and pharmacokinetic study of XR11576, an oral topoisomerase I and II inhibitor, administered on days 1–5 of a 3-weekly cycle in patients with advanced solid tumours” (British Journal of Cancer, 2004)

What was measured:
[1] = test system: patients with advanced solid tumours; assay: Phase I toxicity assessment (NCI-CTC version 2.0), oral XR11576 days 1–5 every 21 days; type: in vivo
Experimental: The total dose prescribed was rounded to the nearest 5 mg. […] Dose escalations between cohorts were based on the prior dose level's toxicity and pharmacological data, allowing a dose escalation up to 100% (which was determined by the worst significant toxicity). […] The stopping dose was defined as the dose level that induced dose-limiting toxicity (DLT) during course 1 in ⩾2/3 or ⩾2/6 patients. Dose-limiting toxicities were defined as grade 4 granulocytopenia for 7 or more days, febrile neutropenia, platelets <25.0 × 10^9 l^−1 and/or nonhaematological toxicity ⩾grade 3. Nausea and vomiting subsequently responding to antiemetic therapy were excluded from DLT. […] If a patient encountered DLT, the dose of XR11576 was decreased by one dose level at re-treatment. […] At the dose recommended for further studies, the number of patients treated could be expanded to 12. Toxicities were evaluated according to the National Cancer Institute Common Toxicity Criteria, version 2.0 (ctep.info.nih.gov/reporting/in dex.html).
Before treatment, a complete medical history was recorded and a physical examination performed. A complete blood count (CBC) including white blood cell differential and serum biochemistry, which involved sodium, potassium, calcium, urea, creatinine, uric acid, total protein, albumin, total bilirubin, alkaline phosphatase, γ-glutamyl transferase, aspartate aminotransferase, alanine aminotransferase, lactate dehydrogenase and glucose, were performed, as were urinalysis, pregnancy test, relevant tumour markers, electrocardiogram and a chest X-ray. […] Weekly evaluations included history, physical examination, toxicity assessment according to the CTC criteria version 2.0, and serum chemistries. Complete blood count was determined twice weekly. Tumour evaluation was performed after every two courses according to the Response Evaluation Criteria in Solid Tumours (RECIST) ([Therasse et al, 2000]). Patients were taken off protocol at the onset of disease progression.

[2] = test system: advanced solid tumours; assay: Tumour evaluation according to RECIST; type: in vivo, human
Experimental: Before treatment, a complete medical history was recorded and a physical examination performed. A complete blood count (CBC) including white blood cell differential and serum biochemistry, which involved sodium, potassium, calcium, urea, creatinine, uric acid, total protein, albumin, total bilirubin, alkaline phosphatase, γ-glutamyl transferase, aspartate aminotransferase, alanine aminotransferase, lactate dehydrogenase and glucose, were performed, as were urinalysis, pregnancy test, relevant tumour markers, electrocardiogram and a chest X-ray. The electrocardiogram was also performed 2 and 24 h after the first drug administration in the first and second cycles. Weekly evaluations included history, physical examination, toxicity assessment according to the CTC criteria version 2.0, and serum chemistries. Complete blood count was determined twice weekly. Tumour evaluation was performed after every two courses according to the Response Evaluation Criteria in Solid Tumours (RECIST) ([Therasse et al, 2000]). Patients were taken off protocol at the onset of disease progression.

[3] = test system: human colon and small-cell lung cancer xenografts; design: method as in Mistry et al, 2002; Lewis et al, 2003; conditions: ref Mistry et al, 2002, Lewis et al, 2003; cited from earlier work
[4] = orally on days 1–5 every 3 weeks

COc1cccc2c1ccc1nc3cccc(C(=O)N[C@H](C)CN(C)C)c3nc12 [XR11576, 4-methoxy-benzo[a]phenazine-11-carboxylic acid (2-dimethulamino-1-R-methyl-ethyl)-amide]
highly active: activity against xenografts in vivo [3]
6 days: nausea and vomiting, median duration ([1]; dose level 180 mg)
4: Vomiting grade 1, worse toxicity per cycle ([1]; 60 mg day^−1, all cycles) | Fatigue grade 2, worse toxicity per cycle ([1]; 150 mg day^−1, all cycles)
No significant abnormalities: abnormalities in ECG tracings ([1]; prior to treatment and following first drug administration)
2 days: nausea and vomiting, median duration ([1]; 30 mg)
12 weeks: stable disease, median duration ([2]; in vivo)
four patients: patients with grade 2 anaemia ([1]; all dose levels)
1 to 14 days: diarrhoea, range of duration ([1]; all dose levels)
two of three patients: patients in whom DLT was encountered ([1]; 180 mg day^−1 dose level)
5 days: diarrhoea, median day of onset ([1]; all dose levels)
1 to 20 days: nausea and vomiting, range of duration ([1]; dose level 180 mg)
diarrhoea and fatigue: dose-limiting toxicities (DLT) [1, 4]
seven patients: patients with grade 1 anaemia ([1]; all dose levels)
1 to 15 days: diarrhoea, range of day of onset ([1]; all dose levels)
2: Fatigue grade 2, worse toxicity per cycle ([1]; 30 mg day^−1, all cycles) | Nausea grade 2, worse toxicity per cycle ([1]; 30 mg day^−1, all cycles) | Nausea grade 1, no. of patients ([1]; 30 mg day^−1, first cycle) | Fatigue grade 1, worse toxicity per cycle ([1]; 60 mg day^−1, all cycles) | Fatigue grade 2, worse toxicity per cycle ([1]; 60 mg day^−1, all cycles) | Fatigue grade 3, worse toxicity per cycle ([1]; 60 mg day^−1, all cycles) | Vomiting grade 1, no. of patients ([1]; 60 mg day^−1, first cycle) | Vomiting grade 3, worse toxicity per cycle ([1]; 120 mg day^−1, all cycles) | WBC grade 1, worse toxicity per cycle ([1]; 120 mg day^−1, all cycles) | Diarrhoea grade 2, no. of patients ([1]; 120 mg day^−1, first cycle) | Vomiting grade 2, no. of patients ([1]; 120 mg day^−1, first cycle) | Vomiting grade 3, no. of patients ([1]; 120 mg day^−1, first cycle) | Nausea grade 1, worse toxicity per cycle ([1]; 150 mg day^−1, all cycles) | Nausea grade 2, worse toxicity per cycle ([1]; 150 mg day^−1, all cycles) | Nausea grade 2, no. of patients ([1]; 150 mg day^−1, first cycle) | Fatigue grade 3, worse toxicity per cycle ([1]; 180 mg day^−1, all cycles) | Plt grade 1, worse toxicity per cycle ([1]; 180 mg day^−1, all cycles) | Plt grade 1, no. of patients ([1]; 180 mg day^−1, first cycle)
3: Nausea grade 1, worse toxicity per cycle ([1]; 30 mg day^−1, all cycles) | Vomiting grade 1, worse toxicity per cycle ([1]; 30 mg day^−1, all cycles) | Nausea grade 1, no. of patients ([1]; 60 mg day^−1, first cycle) | Diarrhoea grade 1, worse toxicity per cycle ([1]; 120 mg day^−1, all cycles) | Diarrhoea grade 2, worse toxicity per cycle ([1]; 120 mg day^−1, all cycles) | Vomiting grade 1, worse toxicity per cycle ([1]; 120 mg day^−1, all cycles) | Fatigue grade 1, no. of patients ([1]; 120 mg day^−1, first cycle) | Fatigue grade 2, no. of patients ([1]; 120 mg day^−1, first cycle) | Nausea grade 2, no. of patients ([1]; 120 mg day^−1, first cycle) | Vomiting grade 2, worse toxicity per cycle ([1]; 150 mg day^−1, all cycles) | Fatigue grade 2, no. of patients ([1]; 150 mg day^−1, first cycle) | Vomiting grade 2, no. of patients ([1]; 150 mg day^−1, first cycle) | Nausea grade 1, worse toxicity per cycle ([1]; 180 mg day^−1, all cycles) | Nausea grade 1, no. of patients ([1]; 180 mg day^−1, first cycle) | Vomiting grade 2, no. of patients ([1]; 180 mg day^−1, first cycle)
three patients: patients with thrombocytopenia ([1]; limited to grade 1 and 2)
120 mg/day: recommended dose for further studies ([1]; days 1–5 every 3 weeks)
8: Nausea grade 1, worse toxicity per cycle ([1]; 120 mg day^−1, all cycles)
26%: diarrhoea grade 1–2, share of cycles ([1]; all cycles)
180 mg/day: maximum tolerated dose (MTD) [1, 4]
5: Fatigue grade 1, worse toxicity per cycle ([1]; 120 mg day^−1, all cycles) | Fatigue grade 2, worse toxicity per cycle ([1]; 120 mg day^−1, all cycles) | Vomiting grade 2, worse toxicity per cycle ([1]; 120 mg day^−1, all cycles) | Nausea grade 1, no. of patients ([1]; 120 mg day^−1, first cycle) | Vomiting grade 2, worse toxicity per cycle ([1]; 180 mg day^−1, all cycles)
Four patients: patients with stabilisation of disease ([2]; melanoma, cervical cancer and parotid cancer)
No objective responses: objective responses ([2]; 21 assessable patients)
1 to 5 days: nausea and vomiting, range of duration ([1]; 30 mg)
1: Diarrhoea grade 1, worse toxicity per cycle ([1]; 30 mg day^−1, all cycles) | Fatigue grade 1, worse toxicity per cycle ([1]; 30 mg day^−1, all cycles) | Fatigue grade 1, no. of patients ([1]; 30 mg day^−1, first cycle) | Fatigue grade 2, no. of patients ([1]; 30 mg day^−1, first cycle) | Diarrhoea grade 1, worse toxicity per cycle ([1]; 60 mg day^−1, all cycles) | Diarrhoea grade 1, no. of patients ([1]; 60 mg day^−1, first cycle) | Fatigue grade 1, no. of patients ([1]; 60 mg day^−1, first cycle) | Fatigue grade 3, no. of patients ([1]; 60 mg day^−1, first cycle) | Diarrhoea grade 3, worse toxicity per cycle ([1]; 120 mg day^−1, all cycles) | Fatigue grade 3, worse toxicity per cycle ([1]; 120 mg day^−1, all cycles) | Plt grade 1, worse toxicity per cycle ([1]; 120 mg day^−1, all cycles) | DLT, no. of patients ([1]; 120 mg day^−1, first cycle) | Diarrhoea grade 1, no. of patients ([1]; 120 mg day^−1, first cycle) | Diarrhoea grade 3, no. of patients ([1]; 120 mg day^−1, first cycle) | Vomiting grade 1, no. of patients ([1]; 120 mg day^−1, first cycle) | WBC grade 1, no. of patients ([1]; 120 mg day^−1, first cycle) | ANC grade 4, worse toxicity per cycle ([1]; 150 mg day^−1, all cycles) | Diarrhoea grade 1, worse toxicity per cycle ([1]; 150 mg day^−1, all cycles) | Diarrhoea grade 2, worse toxicity per cycle ([1]; 150 mg day^−1, all cycles) | Diarrhoea grade 3, worse toxicity per cycle ([1]; 150 mg day^−1, all cycles) | Plt grade 1, worse toxicity per cycle ([1]; 150 mg day^−1, all cycles) | Vomiting grade 1, worse toxicity per cycle ([1]; 150 mg day^−1, all cycles) | WBC grade 2, worse toxicity per cycle ([1]; 150 mg day^−1, all cycles) | ANC grade 4, no. of patients ([1]; 150 mg day^−1, first cycle) | DLT, no. of patients ([1]; 150 mg day^−1, first cycle) | Diarrhoea grade 1, no. of patients ([1]; 150 mg day^−1, first cycle) | Diarrhoea grade 2, no. of patients ([1]; 150 mg day^−1, first cycle) | Diarrhoea grade 3, no. of patients ([1]; 150 mg day^−1, first cycle) | Nausea grade 1, no. of patients ([1]; 150 mg day^−1, first cycle) | Plt grade 1, no. of patients ([1]; 150 mg day^−1, first cycle) | WBC grade 2, no. of patients ([1]; 150 mg day^−1, first cycle) | ANC grade 3, worse toxicity per cycle ([1]; 180 mg day^−1, all cycles) | Diarrhoea grade 1, worse toxicity per cycle ([1]; 180 mg day^−1, all cycles) | Diarrhoea grade 2, worse toxicity per cycle ([1]; 180 mg day^−1, all cycles) | Diarrhoea grade 4, worse toxicity per cycle ([1]; 180 mg day^−1, all cycles) | Fatigue grade 1, worse toxicity per cycle ([1]; 180 mg day^−1, all cycles) | Fatigue grade 2, worse toxicity per cycle ([1]; 180 mg day^−1, all cycles) | Nausea grade 2, worse toxicity per cycle ([1]; 180 mg day^−1, all cycles) | Nausea grade 3, worse toxicity per cycle ([1]; 180 mg day^−1, all cycles) | ANC grade 3, no. of patients ([1]; 180 mg day^−1, first cycle) | DLT, no. of patients ([1]; 180 mg day^−1, first cycle) | Diarrhoea grade 1, no. of patients ([1]; 180 mg day^−1, first cycle) | Diarrhoea grade 2, no. of patients ([1]; 180 mg day^−1, first cycle) | Fatigue grade 1, no. of patients ([1]; 180 mg day^−1, first cycle) | Fatigue grade 2, no. of patients ([1]; 180 mg day^−1, first cycle) | Fatigue grade 3, no. of patients ([1]; 180 mg day^−1, first cycle)
No treatment-related deaths: treatment-related deaths ([1]; in vivo)
7: Nausea grade 2, worse toxicity per cycle ([1]; 120 mg day^−1, all cycles)
mild: overall haematological toxicity ([1]; all dose levels)
12–30 weeks: stable disease, range of duration ([2]; in vivo)
one patient: patients who developed grade 1 alopecia ([1]; during treatment) | patients with grade 4 neutropenia ([1]; heavily pretreated patient, not complicated by fever)
6%: diarrhoea grade 3–4, share of cycles ([1]; all cycles)
6: Nausea grade 1, worse toxicity per cycle ([1]; 60 mg day^−1, all cycles)
4 days: diarrhoea, median duration ([1]; all dose levels)
